Assay results from US20140329892A1, “ADMINISTRATION OF A BIS(THIOHYDRAZIDE AMIDE) COMPOUND FOR TREATING CANCERS” (priority 2011, published 2014).
One block for each compound: values may come before it.

How the values were obtained:
[1] = Pharmacokinetics of I.V. bolus and continuous infusion (Alzet pump) in mice; type: in vivo, Mouse
Protocol: (§2) Mice received elesclomol salt administered in a single I.V. bolus dose of 50 mg/kg. Mice also received elesclomol salt administered by continuous infusion via Alzet pump. The pump was filled with a 40 mg/mL solution of elesclomol salt, and the solution was administered at 1 ml/hr, for a total daily dose of 32 mg/kg/day, based on average body weight of 30 g. The solution was delivered continuously for 7 days, and exposure was calculated from plasma levels collected at 70 hours post pump implantation.

HL-60 cells [2] = assay: Subcellular copper content by BCA assay after elesclomol-Cu treatment; type: cell-based, human; settings: HL-60 cells treated for 2 hours
Protocol: (§1) Human peripheral blood mononuclear cells (PBMCs) from 3 independent donors and human promyelotic tumor cell line HL-60 were treated with the elesclomol-Cu complex for 2 hours. Cells were subsequently fractionated into cytosolic, nuclear or mitochondrial fractions and the subcellular copper content was determined by BCA assay.

[3] = tested on: peripheral blood mononuclear cells (PBMCs); assay: as above; type: cell-based, human; settings: PBMCs from 3 donors treated for 2 hours
Protocol: as §1

[4] = tested on: mitochondria isolated from HL-60 cells; assay: MitoSox Red ROS assay in isolated mitochondria; type: cell-based, human; settings: HL-60-derived mitochondria, 0.2 μM and 1 μM, 30 minutes
Protocol: Mitochondria isolated from PBMCs or from HL-60 cells were treated for 30 minutes with either DMSO, free copper (CuCl2) at the concentrations of 0.2 μM and 1 μM, disulfiram-Cu complex (DSF-Cu) at the concentrations of 0.2 μM and 1 μM, and elesclomol-Cu complex at the concentrations of 0.2 μM and 1 μM. Subsequent to incubation, ROS levels were measured by MitoSox Red. The results of the MitoSox Red assay are shown in FIG. 2 as mean±SD of experiments with PBMCs isolated from three independent donors or with three individual experiments with HL-60.

[5] = tested on: HL-60 cells enriched with ^63Cu; assay: Cellular 63Cu and 65Cu levels by ICP-MS; type: cell-based, human; settings: 100 nM, 0, 0.5, 3 and 9 hours, 10% FBS medium
Protocol: A complex of elesclomol with ^65Cu was prepared. HL-60 cells enriched with ^63Cu were treated with 100 nM elesclomol-^65Cu or 100 nM free ^65Cu for 0, 0.5, 3 and 9 hours in 10% FBS medium. Cellular ^63Cu and ^65Cu levels were measured by inductively coupled plasma mass spectroscopy (ICP-MS).

[6] = Pharmacokinetics of 1-hour infusion in humans; settings: Human, 200 mg/m^2
Protocol: as §2

HL-60 cells [7] = assay: Cellular copper and elesclomol levels after elesclomol incubation; type: cell-based, human; settings: 100 nM, 3 hours
Protocol: PBMCs and HL-60 cells were incubated with a vehicle (DMSO) or with 100 nM elesclomol for 3 hours. Subsequent to incubation, cellular copper levels and elesclomol levels for PBMCs and HL-60 cells were determined and are shown in FIG. 3.

[8] = Mouse toxicity study of elesclomol salt continuously administered via Alzet pump; design: species or system mice of strain CD1; settings: in vivo
Protocol: A total of 15 mice of strain CD1 were used for the toxicity study, of which 10 were in the elesclomol salt treatment group, and 5 were in the control group. Alzet pump was filled with a total of 200 μl of infusion solution and implanted subcutaneously within 1-2 hours. The infusion solution was continuously delivered for 7 days, and the pump was replaced with a new pump at day 8.

- Exposure/day ([1]; mouse, in vivo, 32 mg/kg/day): 516 h * ng/mL/d
- Exposure/day ([1]; mouse, in vivo, iv, 50 mg/kg): 670 h * ng/mL/d
SMILES: CN1C(c2ccccc2)=[S][Cu]23[S]=C(c4ccccc4)N(C)[N]2C(=O)CC(=O)[N]13 [Elesclomol-Cu]
- relative copper levels in the nuclear, cytosolic and mitochondrial fractions (HL-60 cells [2]): copper levels increased only in HL-60 cells, particularly, in the mitochondrial fraction
- relative copper levels in the nuclear, cytosolic and mitochondrial fractions [3]: increased only in HL-60 cells
- ROS levels (MitoSox Red) [4]: induces ROS in HL-60-derived mitochondria

SMILES: CN1C(c2ccccc2)=[S][65Cu]23[S]=C(c4ccccc4)N(C)[N]2C(=O)CC(=O)[N]13 [elesclomol-^65Cu]
- accumulation of ^63Cu in cells [5]: cause accumulation of ^63Cu in HL-60 cancer cells
- amount of copper accumulated in the cells versus length of exposure [5]: directly proportional to the length of time

SMILES: CN(NC(=O)CC(=O)NN(C)C(=S)c1ccccc1)C(=S)c1ccccc1 [elesclomol, Elesclomol]
- Exposure/day ([1]; Mouse, elesclomol salt I.V. bolus, 50 mg/kg): 5140 h * ng/mL/d
- Exposure/day ([1]; Mouse, elesclomol salt by continuous infusion (pump), 32 mg/kg/d, calculated from plasma levels at 70 hours post pump implantation): 1183 h * ng/mL/d
- Exposure/day [6]: 4938 h * ng/mL/d
- cellular copper levels (HL-60 cells [7]; HL-60 cells): remarkably and selectively elevated
- cellular elesclomol levels (HL-60 cells [7]; HL-60 cells compared with PBMCs): slightly lower than that in PBMCs
- overall toxicity / adverse effects [8]: not associated with acute toxicity
